Test results reported in ChEMBL document CHEMBL5150031, “Targeting osteoarthritis-associated galectins and an induced effector class by a ditopic bifunctional reagent: Impact of its glycan part on binding measured in the tissue context” (Bioorg Med Chem, 2022).
Active and inactive are the calls of the source. The calls are words filed in the database; no cut-off is given here.

Assays:
[1] = Inhibition of biotinylated Galectin-1/3 (unknown origin) preincubated for 30 mins at room temperature followed by incubation at 37 degC for 1 hr by surface-immobilized glycoprotein asialofetuin based solid phase assay; parameters: species or system Homo sapiens
Homo sapiens [2] = species on record: Homo sapiens; experiment: Inhibition of biotinylated Galectin-1/3 (unknown origin) preincubated for 30 mins at room temperature followed by incubation at 37 degC for 1 hr by surface-immobilized glycoprotein asialofetuin based solid phase assay relative to lactose; settings: time 90.0 min
[3] = molecular target: Galectin-3 (Mus musculus) (UniProt P16110); experiment: Inhibition of biotinylated galectin-3 binding to C57BL/6 mouse kidney cortex at 125 to 500 uM of lactose residue per molecule preincubated for 1 hr followed by incubation with tissue material for overnight by light microsocopy; type: tissue-based; settings: dose 125-500 µM
Sequence of Galectin-3 (Mus musculus) (P16110 whole entry): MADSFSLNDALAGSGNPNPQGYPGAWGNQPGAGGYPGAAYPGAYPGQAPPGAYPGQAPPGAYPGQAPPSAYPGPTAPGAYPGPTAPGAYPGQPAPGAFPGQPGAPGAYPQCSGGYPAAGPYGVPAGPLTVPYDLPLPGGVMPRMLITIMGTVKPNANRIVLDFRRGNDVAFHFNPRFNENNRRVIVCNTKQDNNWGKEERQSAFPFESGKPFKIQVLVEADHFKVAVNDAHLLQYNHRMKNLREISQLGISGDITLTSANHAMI

[4] = molecular target: Galectin-3 (Mus musculus) (UniProt P16110); experiment: Inhibition of biotinylated galectin-3 binding to C57BL/6 mouse kidney medulla at 125 to 500 uM of lactose residue per molecule preincubated for 1 hr followed by incubation with tissue material for overnight by light microsocopy; type: tissue-based; settings: Renal medulla, dose 125-500 µM
[5] = molecular target: Galectin-1 (Mus musculus) (UniProt P16045); experiment: Inhibition of biotinylated galectin-1 binding to C57BL/6 mouse kidney at 125 to 500 uM of lactose residue per molecule preincubated for 1 hr followed by incubation with tissue material for overnight by light microsocopy; type: tissue-based; settings: dose 125-500 µM
Sequence of Galectin-1 (Mus musculus) (P16045 whole entry): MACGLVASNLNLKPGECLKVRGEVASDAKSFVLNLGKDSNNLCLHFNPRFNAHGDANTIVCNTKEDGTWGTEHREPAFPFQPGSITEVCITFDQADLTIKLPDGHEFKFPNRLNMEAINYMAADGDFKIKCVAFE

Collagenase 3 [6] = molecular target: T1, Collagenase 3 (Homo sapiens, UniProt P45452); experiment: Inhibition of MMP13 (unknown origin) assessed as reduction in cleavage of colorimetric substrate incubated for 1 hr by colorimetric analysis
Collagenase 3 [7] = molecular target: T1, Collagenase 3; experiment: Inhibition of MMP13 (unknown origin) assessed as reduction in cleavage of colorimetric substrate by measuring remaining activity at 10 nM incubated for 1 hr by colorimetric analysis relative to control
Collagenase 3 [8] = molecular target: T1, Collagenase 3; experiment: Inhibition of MMP13 (unknown origin) assessed as reduction in cleavage of colorimetric substrate by measuring remaining activity at 100 nM incubated for 1 hr by colorimetric analysis relative to control
Collagenase 3 [9] = molecular target: T1, Collagenase 3; experiment: Inhibition of MMP13 (unknown origin) assessed as reduction in cleavage of colorimetric substrate by measuring remaining activity at 1000 nM incubated for 1 hr by colorimetric analysis relative to control
[10] = molecular target: Galectin-1 (Mus musculus) (UniProt P16045); experiment: Inhibition of Alexa-Fluor-488 conjugated galectin-1 binding to C57BL/6 mouse kidney cortex at 2 mM of sugar preincubated for 1 hr followed by incubation with tissue material for overnight by 2-colour fluorescence microsocopy; type: tissue-based
[11] = molecular target: Galectin-1 (Mus musculus) (UniProt P16045); experiment: Inhibition of Alexa-Fluor-488 conjugated galectin-1 binding to C57BL/6 mouse kidney medulla at 2 mM of sugar preincubated for 1 hr followed by incubation with tissue material for overnight by 2-colour fluorescence microsocopy; type: tissue-based; settings: Renal medulla
[12] = molecular target: Galectin-3 (Mus musculus) (UniProt P16110); experiment: Inhibition of Alexa-Fluor-647 conjugated galectin-3 binding to C57BL/6 mouse kidney cortex at 2 mM of sugar preincubated for 1 hr followed by incubation with tissue material for overnight by 2-colour fluorescence microsocopy; type: tissue-based
[13] = molecular target: Galectin-3 (Mus musculus) (UniProt P16110); experiment: Inhibition of Alexa-Fluor-647 conjugated galectin-3 binding to C57BL/6 mouse medulla at 2 mM of sugar preincubated for 1 hr followed by incubation with tissue material for overnight by 2-colour fluorescence microsocopy; type: tissue-based; settings: Renal medulla
Mus musculus [14] = species on record: Mus musculus; experiment: Inhibition of Alexa-Fluor-488 conjugated galectin-1/Alexa-Fluor-647 conjugated galectin-3 binding to C57BL/6 mouse kidney cortex at 2 mM of sugar preincubated for 1 hr followed by incubation with tissue material for overnight by 2-colour fluorescence microsocopy; type: tissue-based
Mus musculus [15] = species on record: Mus musculus; experiment: Inhibition of Alexa-Fluor-488 conjugated galectin-1/Alexa-Fluor-647 conjugated galectin-3 binding to C57BL/6 mouse medulla at 2 mM of sugar preincubated for 1 hr followed by incubation with tissue material for overnight by 2-colour fluorescence microsocopy; type: tissue-based; settings: Renal medulla
[16] = molecular target: Galectin-1 (Homo sapiens) (UniProt P09382); experiment: Inhibition of Alexa-Fluor-488 conjugated galectin-1 binding to human osteoarthritic cartilage at 4 mM of sugar preincubated for 1 hr followed by incubation with tissue material for overnight by 2-colour fluorescence microsocopy; type: tissue-based
Sequence of Galectin-1 (Homo sapiens) (P09382 whole entry): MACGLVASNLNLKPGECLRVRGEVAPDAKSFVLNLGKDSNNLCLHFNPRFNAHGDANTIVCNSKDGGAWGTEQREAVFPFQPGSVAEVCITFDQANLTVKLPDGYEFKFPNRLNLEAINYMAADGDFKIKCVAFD

[17] = molecular target: Galectin-3 (Homo sapiens) (UniProt P17931); experiment: Inhibition of Alexa-Fluor-647 conjugated galectin-3 binding to human osteoarthritic cartilage at 4 mM of sugar preincubated for 1 hr followed by incubation with tissue material for overnight by 2-colour fluorescence microsocopy; type: tissue-based
Sequence of Galectin-3 (Homo sapiens) (P17931 whole entry): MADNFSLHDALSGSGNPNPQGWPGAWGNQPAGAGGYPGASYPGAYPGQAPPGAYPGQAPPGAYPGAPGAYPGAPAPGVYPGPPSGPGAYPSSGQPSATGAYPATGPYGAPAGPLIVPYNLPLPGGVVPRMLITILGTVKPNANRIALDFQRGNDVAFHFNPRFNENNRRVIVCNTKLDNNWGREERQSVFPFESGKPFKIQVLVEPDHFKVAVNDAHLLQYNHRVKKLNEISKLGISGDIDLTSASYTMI

Homo sapiens [18] = species on record: Homo sapiens; experiment: Inhibition of Alexa-Fluor-488 conjugated galectin-1/Alexa-Fluor-647 conjugated galectin-3 binding to human osteoarthritic cartilage at 4 mM of sugar preincubated for 1 hr followed by incubation with tissue material for overnight by 2-colour fluorescence microsocopy; type: tissue-based

Compound | IC50 [1] | Ratio (Homo sapiens [2]) | inhibition [3] | inhibition [4] | inhibition [5] | IC50 (Collagenase 3 [6]) | inhibition [16] | inhibition [17] | inhibition (Homo sapiens [18]) | other results
OC[C@H]1O[C@@H](O[C@H]2[C@H](O)[C@@H](O)[C@H](n3cc(COC[C@@H](OCc4cn([C@@H]5O[C@H](CO)[C@@H](O[C@@H]6O[C@H](CO)[C@H](O)[C@H](O)[C@H]6O)[C@H](O)[C@H]5O)nn4)[C@@H](OCc4cn([C@@H]5O[C@H](CO)[C@@H](O[C@@H]6O[C@H](CO)[C@H](O)[C@H](O)[C@H]6O)[C@H](O)[C@H]5O)nn4)[C@H](OCc4cn([C@@H]5O[C@H](CO)[C@@H](O[C@@H]6O[C@H](CO)[C@H](O)[C@H](O)[C@H]6O)[C@H](O)[C@H]5O)nn4)[C@@H](COCc4ccccc4)OCc4ccccc4)nn3)O[C@@H]2CO)[C@H](O)[C@@H](O)[C@H]1O | 220 µM | 4.9 | Active | Active | Active |  |  |  |  | 
COc1ccc(S(=O)(=O)N(CCCCCCNC(=O)CCCCC(=O)NCCN(CCC(=O)NCCNC(=O)CCCCC(=O)NCCO[C@@H]2O[C@H](CO)[C@@H](O[C@@H]3O[C@H](CO)[C@H](O)[C@H](O)[C@H]3O)[C@H](O)[C@H]2O)CCC(=O)NCCNC(=O)CCCCC(=O)NCCO[C@@H]2O[C@H](CO)[C@@H](O[C@@H]3O[C@H](CO)[C@H](O)[C@H](O)[C@H]3O)[C@H](O)[C@H]2O)CC(=O)NO)cc1 | 200 µM | 5.4 | Active | Active | Active | 1.3 nM | Active | Active | Active | Activity (Collagenase 3 [7]): 15.2%; Activity (Collagenase 3 [8]): 3.2%; Activity (Collagenase 3 [9]): 2.7%; inhibition [10]: Active; inhibition [11]: Active; inhibition [12]: Active; inhibition [13]: Active; inhibition (Mus musculus [14]): Active; inhibition (Mus musculus [15]): Active
COc1ccc(S(=O)(=O)N(CC(=O)NO)CC(C)C)cc1 |  |  |  |  |  | 5.2 nM |  |  |  | 
LACTOSE, ANHYDROUS [listing 1 of 2 here] |  |  |  |  |  |  | Active | Active | Active | 
OC[C@H]1O[C@@H](O[C@H]2[C@H](O)[C@@H](O)[C@H](n3cc(COC[C@@H](OCc4cn([C@@H]5O[C@H](CO)[C@@H](O[C@@H]6O[C@H](CO)[C@H](O)[C@H](O)[C@H]6O)[C@H](O)[C@H]5O)nn4)[C@@H](O)[C@H](O)[C@@H](COCc4cn([C@@H]5O[C@H](CO)[C@@H](O[C@@H]6O[C@H](CO)[C@H](O)[C@H](O)[C@H]6O)[C@H](O)[C@H]5O)nn4)OCc4cn([C@@H]5O[C@H](CO)[C@@H](O[C@@H]6O[C@H](CO)[C@H](O)[C@H](O)[C@H]6O)[C@H](O)[C@H]5O)nn4)nn3)O[C@@H]2CO)[C@H](O)[C@@H](O)[C@H]1O | 420 µM | 2.5 | Active | Active | Active |  |  |  |  | 
LACTOSE, ANHYDROUS [listing 2 of 2 here] | 1070 µM |  |  |  |  |  |  |  |  | 
